{
  "source": "patent US9902752B2",
  "about": "“5-fluorouracil derivatives” (B. Braun Melsungen AG, priority 2012, dated 2018)",
  "test": "Acidic stability (hydrolysis) of the O-2′,3′-ketal group",
  "assay_type": "physicochemical",
  "conditions": "1N aqueous HCl/MeCN 1:1 (v/v), RP-18 HPLC, calculated graphically; read-out: half-life under acidic conditions",
  "protocol": "Both, the acidic hydrolysis of the O-2′,3′-ketal moiety of the ester 28a as well as the chitosanase-catalyzed degradation of chitosan foil-bound 5-fluorouridine was measured. Acidic stability was determined by incubating compound 28a (2 mg) in 1N aqueous HCl/MeCN 1:1 (v/v), neutralization by Et3N and subsequent RP-18 HPLC analysis as described above (FIG. 12).\nThe faster migrating zone contains always pure 5-fluorouridine, the slower migrating zone the residual ketal 28a. The half-life value was calculated graphically from a plot of the peak integral of both, the residual ketals and 5-fluorouridine vs. reaction time (FIG. 13). Upon acidic hydrolysis only the nucleoside and no 5-fluorouracil were formed.",
  "data": [
    {"smiles": "CCOC(=O)CCC1(C)OC2C(O1)[C@@H](CO)O[C@H]2n1cc(F)c(=O)[nH]c1=O", "note": "(stereo partly shown) [Compound 28a]", "values": [
      {"measurement": "half-life", "value": "~300", "unit": "min"}
    ]}
  ]
}
